# Test results: patent publication US4456618A, “Naphthenic and heterocyclic retinoic acid analogues” (SRI International, priority 1982, dated 1984)
# Legend:
# [1] = system: Hamster Tracheal Organ Culture; experiment: Reversal of keratinization in hamster tracheal organ culture; format: cell-based
# Protocol: (§1) The ODC assay measures a compound's ability to prevent the induction of ODC. The tracheal organ culture assay measures a compound's ability to reverse keratinization.
# The tracheal organ culture assay is carried out as follows. Tracheas are taken from hamsters that are in very early stages of vitamin A deficiency and placed in organ culture. At the time of culture, the animals are still gaining weight; the tracheal epithelium is generally low columnar or cuboidal, with only occasional patches of squamous metaplasia. Each trachea is opened from the larynx to the carina along the membranous dorsal wall and cultured in a serum-free medium (CMRL-1066; with crystalline bovine insulin, 0.1 μg/ml; hydrocortisone hemisuccinate, 0.1 μg/ml; glutamine, 2 mM; penicillin, 100 units/ml; and streptomycin,100 μg/ml, added). Cultures are gassed with 50% oxygen, 45% nitrogen, and 5% CO2. The culture dishes are rocked at 35.5-36.0 degrees to allow the tracheas contact with both gas and medium. All tracheas are grown in medium containing no retinoid for the first 3 days. At the end of 3 days, some tracheas are harvested; almost all of these tracheas have significant squamous metaplasia, and approximately 60% have keratinized lesions. The remaining tracheas are then divided into different groups which are treated with either: (1) retinoid dissolved in dimethylsulfoxide (final concentration of DMSO in culture medium is never greater than 0.1%) or (2) an equivalent amount of DMSO alone. Culture medium is changed three times a week, and all of the remaining tracheas are harvested at the end of 10 days in culture. Tracheas are fixed in 10% buffered formalin and embedded in paraffin. Cross sections of five micrometers are made through the mid-portion, stained with hematoxylin and eosin, and then scored with a microscope for the presence of keratin and keratohyaline granules, both of which are found in approximately 90% of control cultures that received no retinoid for the entire 10 day culture period.
# Ornithine Decarboxylase = experiment: Ornithine decarboxylase (ODC) assay: inhibition of TPA-induced ODC induction in mouse skin; format: in vivo, mouse (female Charles River CD-1); details: topical, 1 hour before TPA (17 nmol)
# Protocol: as §1
# The ODC assay is carried out as follows. Female Charles River CD-1 mice from Charles River Breeding Laboratories, Wilmington, Mass., are used (age 7 to 9 weeks). The dorsal hair of the mice is shaved 1 to 2 days before testing, and only mice showing no hair regrowth are used. A single dose of 12-O-tetradecanoylphorbol-13-acetate (TPA) (10.5 μg, 17 nmol) in 0.2 mL of acetone is applied topically to the back of each mouse. The test compound, at one of three dose levels (1.7, 17 and 170 nmol), dissolved in 0.2 mL of acetone is applied 1 hour before the TPA treatment to the test groups; the control group is treated with acetone alone. The mice are killed by cervical dislocation five hours after TPA treatment. Determinations are done in triplicate.
# The epidermis is obtained from the sacrificed animals. To obtain sufficient material, the dorsal skins from 2 to 3 mice in each treatment group are pooled. The depilatory agent Nudit® (Helena Rubinstein, New York) is applied to the shaved area of the skin; after 5 minutes, it is washed off thoroughly with cold tap water. Then the skin is excised and plunged immediately into ice-cold water; it is then placed in a 55° C. water bath for 30 seconds and reimmersed in ice-cold water for at lease another 30 seconds. The skin is placed epidermis side up on a cold plate, and the epidermis is scraped off with a razor blade. The pooled epidermal sheets are homogenized (Polytron PT-10 homogenizer) at 0° to 4° C. for 15-20 seconds in 50 mM sodium phosphate and 0.1 mM ethylenediaminetetraacetic acid (EDTA), at a volume of 1 mL/skin.
# The supernatant fraction remaining after centrifugation of the homogenate at 10,000×g for 30 seconds at 0° C. is used for the enzyme assay. Enzyme activity is determined using the microassay for ODC as described by Verma and Boutwell to measure the release of ^14 CO2 from DL-[1-^14 C]-ornithine (58 mCi/mmol) after incubation with the 10,000×g supernatant. The incubations are carried out by decanting, with a Pasteur pipette, 100 μL of the supernatant containing 100 to 120 μg of protein into two or three 15-mL Corex tubes in a shaking water bath at 37° C. The assay mixture in the tubes consists of 50 μL of 100 mM sodium phosphate buffer (pH 7.2), 10 μL of 4 mM pyridoxal phosphate, 40 μL of 25 mM dithiothreitol, and 1 μL of 0.1 M EDTA. The center wells in the tubes are filled with 200 μL of a 2:1 solution (v/v) of ethanolamine:2-methoxyethanol. The reaction is started by adding 50 μL of substrate (0.5 μCi of DL-[1-^14 C]-ornithine in 2 mM cold ornithine) at 1-minute intervals by injection to each of the stoppered tubes. Incubations are routinely carried out at 37° C. for 30 to 60 minutes. The reaction is stopped by addition of 0.5 ml of 2 M citric acid, and incubation is continued for an additional hour without heating to ensure complete absorption of ^14 CO2.
# Radioactivity is measured using a toluene-based scintillant (4 g of PPO and 50 mg of POPOP/L of toluene) in a Beckman LS-250 liquid scintillation counter. Enzyme activity is determined in triplicate and expressed as nanomoles of CO2 released in 30 minutes per milligram of protein. Enzyme activity is linear for the protein concentration used. The protein concentrations of the epidermal extracts are determined by the Lowry procedure, using bovine serum albumin as the standard.
Compound,"Reversal of Keratinization, Active/Total Cultures ([1]; Conc 10^-8 M)","Reversal of Keratinization, Active/Total Cultures (%) ([1]; Conc 10^-8 M)","Reversal of Keratinization, Active/Total Cultures ([1]; Conc 10^-9 M)","Reversal of Keratinization, Active/Total Cultures (%) ([1]; Conc 10^-9 M)","Reversal of Keratinization, Active/Total Cultures ([1]; Conc 10^-10 M)","Reversal of Keratinization, Active/Total Cultures (%) ([1]; Conc 10^-10 M)","Inhibition of Induction of Ornithine Decarboxylase by 12-O-Tetradecanoylphorbol-13-acetate in Mouse Skin, % Inhibition of Control (Ornithine Decarboxylase; Dose 1.7 nmol) [%]","Inhibition of Induction of Ornithine Decarboxylase by 12-O-Tetradecanoylphorbol-13-acetate in Mouse Skin, % Inhibition of Control (Ornithine Decarboxylase; Dose 17 nmol) [%]"
"CC1=C(/C=C/c2ccc3cc(C=O)ccc3c2)C(C)(C)CCC1 [Example 1, (E)-6-[2-(2,6,6-trimethyl-1-cyclohexen-1-yl)ethenyl]-2-naphthaldehyde]",15/16,94,7/14,50,4/14,28,0,45
"CC1=C(/C=C/c2ccc3cc(C(=O)O)ccc3c2)C(C)(C)CCC1 [Example 3, 6-[2-(2,6,6-trimethyl-1-cyclohexen-1-yl)ethenyl]-2-naphthoicacid]",7/7,100,7/7,100,3/7,43,30,48
"CCOC(=O)c1ccc(/C=C(C)/C=C/C2=C(C)CCCC2(C)C)o1 [Example 4, (E)-1-(5-Carbethoxy-2-furanyl)-2-methyl-4-(2,6,6-trimethyl-1-cyclohexen-1-yl)-1,3-butadiene]",2/7,29,2/7,29,2/6,33,9,9
"CC1=C(/C=C/C(C)=C/c2ccc(C(=O)O)o2)C(C)(C)CCC1 [Example 5, (E)-1-(5-carboxy-2-furanyl)-2-methyl-4-(2,6,6-trimethyl-1-cyclohexen-1-yl)-1,3-butadiene]",3/6,50,3/7,43,3/7,43,7,5
"CCOC(=O)c1ccc(/C=C(C)/C=C/C2=C(C)CCCC2(C)C)s1 [Example 6, (E)-1-(5-Carbethoxythien-2-yl)-2-methyl-4-(2,6,6-trimethyl-1-cyclohexen-1-yl)-1,3-butadiene]",13/13,100,10/14,71,6/14,43,67,77
"CC1=C(/C=C/C(C)=C/c2ccc(C(=O)O)s2)C(C)(C)CCC1 [Example 8, (E)-1-(5-carboxythien-2-yl)-2-methyl-4-(2,6,6-trimethyl-1-cyclohexen-1-yl)-1,3-butadiene]",15/15,100,14/15,93,7/15,47,42,67
